Assays:
[1] = tested on: rat with a crushed sciatic nerve; test: Pain assay, 'trauma' model of neuropathic pain (crushed sciatic nerve), paw withdrawal latency with heat lamp; format: in vivo; settings: rats, 10 mg/kg IP once on day 0, tested each day
Procedure: Test compound, VPC01091 (Drug T, mixture of all isomers), was dissolved in 2% hydroxypropyl beta-cyclodextrin in water and administered to the test group of laboratory rats. The vehicle (Drug V: 2% hydroxypropyl beta-cyclodextrin in water) was administered to the control group of laboratory rats. Each group included 11 animals.
The identities of ‘Drug T’ and ‘Drug V’ were maintained in secret to prevent bias. The test solutions (test compound or vehicle) were intraperitoneally (IP) administered once (day 0), the dose was 10 mg/kg body weight. On day 0, each of the 22 animals was anesthetized, the sciatic nerve bundle on the right side exposed surgically, and crushed mechanically. This is known as the ‘trauma’ model of neuropathic pain. The animals were tested each day for the time required to lift either paw after illumination with small heat lamp.

[2] = target: T1, SPHK2 enzyme (Homo sapiens, UniProt Q9NRA0); test: Phosphorylation by the SPHK2 enzyme in vitro; format: biochemical; settings: separated isomers of VPC01091, in vitro
T1 sequence (Q9NRA0 1-654): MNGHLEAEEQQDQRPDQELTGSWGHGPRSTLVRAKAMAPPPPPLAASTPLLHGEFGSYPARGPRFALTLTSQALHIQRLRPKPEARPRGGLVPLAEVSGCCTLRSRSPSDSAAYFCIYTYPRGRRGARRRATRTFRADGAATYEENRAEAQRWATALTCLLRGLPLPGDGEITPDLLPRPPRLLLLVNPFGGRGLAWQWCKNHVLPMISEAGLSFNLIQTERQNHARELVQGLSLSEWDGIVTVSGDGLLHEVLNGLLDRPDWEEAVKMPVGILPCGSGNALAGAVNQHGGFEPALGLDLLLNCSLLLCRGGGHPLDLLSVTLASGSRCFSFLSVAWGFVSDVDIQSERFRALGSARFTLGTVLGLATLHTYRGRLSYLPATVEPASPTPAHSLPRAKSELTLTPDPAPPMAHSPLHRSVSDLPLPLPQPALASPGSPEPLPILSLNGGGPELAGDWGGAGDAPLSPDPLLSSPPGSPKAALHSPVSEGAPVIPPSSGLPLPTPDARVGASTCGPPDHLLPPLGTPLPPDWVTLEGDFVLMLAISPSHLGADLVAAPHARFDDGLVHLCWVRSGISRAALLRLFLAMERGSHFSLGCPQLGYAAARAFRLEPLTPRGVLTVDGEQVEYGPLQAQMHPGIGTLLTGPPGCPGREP
Procedure: These compounds can be prepared as a mixture and separated by chromatography. Exemplary conditions for separation are as follows: Column: Chiralpak AD 4.6 mm ID×250 mm, Mobile Phase: Hex/EtOH/MeOH/DEA=95/2.5/2.5/0.03, Flow Rate: 1 mL/min, Detector: UV 220 nm, Column Temp: 40° C., or Column Temp: 25° C.

[3] = tested on: sciatic nerve injury (CCI) model; test: Sciatic nerve injury (CCI) model of neuropathic pain, mechanical allodynia; format: in vivo, rat; settings: rats, 3 mg/kg p.o. once a day for 5 days, started 2 weeks after nerve injury
Excerpt: In these models, oral treatment with VPC01091-D was started 2 weeks following nerve injury, once the pain was established. A control group received only vehicle. Following once a day dosing for 5 days, […].) reversed mechanical allodynia by 42±8% in the CCI model. (See FIG. 5).

[4] = tested on: spinal nerve injury (SNL) model; test: Spinal nerve injury (SNL) model of neuropathic pain, mechanical allodynia; format: in vivo, rat; settings: rats, 3 mg/kg p.o., started 2 weeks after nerve injury
Excerpt: In these models, oral treatment with VPC01091-D was started 2 weeks following nerve injury, once the pain was established. A control group received only vehicle.

SMILES	analgesic effect (PWL time increases after injury), only on the affected side [1]	development of thermal hyperalgesia in the affected (crushed nerve) paw (PWL) [1]	phosphorylated by the SPHK2 enzyme in vitro [2]	reversed mechanical allodynia [3] [%]	analgesic activity [4] [%]
CCCCCCCCc1ccc(C2CCC(N)(CO)C2)cc1 (centres unmarked) [VPC01091, (1-amino-3-(4-octylphenyl)cyclopentyl)methanol]	exhibited an analgesic effect	prevented the development of thermal hyperalgesia			
CCCCCCCCc1ccc([C@H]2CC[C@](N)(CO)C2)cc1 [VPC01091-D]			not phosphorylated	42±8	50±10
